Structures can show the parent of a compound that is named as a salt. A value given as a limit tells only on which side of the number the result lay.

As usually defined, the IC50 is the concentration that gives 50% inhibition.

Test [1] deals with T1, αvβ3 (Homo sapiens, UniProt P05106+P06756). The test can be described thus: Solid-phase assay: biotinylated-fibrinogen binding to immobilized αvβ3. The following applies: for IC50: Solid Phase Assay, biotinylated-fibrinogen 10 nM, 2 hours at 37° C; for Selectivity: αIIbβ3 vs αvβ3 solid phase IC50. The arrangement: placental αvβ3; from tissue; host or cells: placenta. As for the experimental part:
(§1) Assay 1. Fibrinogen Binding to Immobilized αIIbβ3 and αvβ3 (Solid-Phase Assays) The wells of plastic microtiter plates were coated overnight at 4° C. with purified active αIIbβ3 (Calbiochem) or placental αvβ3 at 0.5 ug/mL (100 uL/well) in a buffer containing 150 mM NaCl, 20 mM Tris, pH 7.4, 1 mM MgCl2, 0.2 mM MnCl2, and including 1 mM CaCl2 for αIIbβ3 Blocking of nonspecific sites was achieved by incubating the wells with 35 mg/mL bovine serum albumin (BSA) for at least 2 hours at 37° C. Biotinylated-fibrinogen (10 nM) was added in 0.2 mL binding buffer (100 mM NaCl, 50 mM Tris, pH 7.4, 1 mM MgCl2, 0.2 mM MnCl2 and 1 mg/mL BSA including 1 mM CaCl2 for αIIbβ3) to the wells in triplicate in the absence or presence of increasing concentrations of compounds of interest (0.001-100 uM) and further incubated for 2 hours at 37° C. Nonbound fibrinogen was removed by five washes with binding buffer. Avidin conjugated to alkaline phosphatase (Sigma), diluted in binding buffer, was added and incubated for two hours at 37° C. The plates were washed five times with binding buffer, and after addition of the substrate PNPP (Pierce), the enzyme activity was measured by the absorbance at 405 nm. The concentration of inhibitor required to inhibit 50% of biotinylated-fibrinogen binding was defined as IC50 determined by a nonlinear, sigmoidal dose response variable slope from the GraphPad Prism software.

The test system of a further test is B16F10. The test can be described thus: Cytotoxicity (MTT), B16F10. Format: cell-based. The following applies: Mus musculus, B16-F10, 72 hours. As for the experimental part:
[The source words this procedure for another cell line and reports this cell line under the same test.] (§2) Assay 3. Cytotoxicity (MTT)
(§3) The wells of microtiter plates were seeded with 2000 cells/well T24, 2500 cells/well HT29 or 5000 cells/well HMVEC (Cell Systems) in 100 uL, followed by an overnight culture for cell adhesion. The next day, the media is supplemented with 100 uL of 10-fold dilution of compound of interest starting at 10 uM. Following culture for 72 hours, 3-(4, 5-dimethyl-2-thiazolyl)-2, 5-diphenyltetrazolium bromide (MTT; Sigma) at 2 mg/mL was added to each well (50 uL/well) and further incubated for 4 hours at 37° C. The medium was flicked out and 200 uL of a 1:1 solution of ethanol:acetone followed by 25 uL of glycine buffer (0.1 M glycine, 0.1M NaCl, pH 10.5) is added and the color measured by the absorbance at 570 nm.

For test [2], the target named is T1, αvβ3. The test can be described thus: Cell attachment assay, αvβ3. Format: cell-based. The following applies: 1 hour at 37° C. As for the experimental part:
(§4) The wells of 96-well plates (Immunolon) were coated, by incubation overnight at 4° C., with 5 ug/mL vitronectin, 2 ug/mL osteopontin, or fibronectin or 10 mg/mL BSA in PBS. The protein solution was flicked out and the wells were blocked with 10 mg/mL BSA (0.1 mL) for 1-2 hours at 37° C. Cells HT29, K562, or K562 transfected with αvβ3 (Blystone et al., 1994) were loaded with a fluorescent marker, 5-chloromethylfluorescein diacetate (Molecular Probes, Eugene, OR) for 1 hour at 37° C., then incubated in fresh medium without the fluorescent marker for 1 hour. Cells were lifted with trypsin-EDTA and washed two times with Hank's balanced salt solution minus cations (Sigma) supplemented with 1 mM MgCl2 Cells (75,000 cells/well) were added to coated plates in triplicate and allowed to attach at 37° C. for 1 hour in the presence or absence of specific antibodies (5 ug/mL) or 10-fold dilutions of compounds of interest starting at 10 uM. Nonadherent cells were removed by gentle washing twice with PBS. The adherent cells were solubilized with 1% triton x-100 and detected using a fluorescence plate reader (DYNEX Technologies). The number of attached cells was calculated based upon standard curves for each cell line used in the experiment. Non-specific cell attachment (attachment to wells coated with BSA) was always less than 5%.

The test system of a further test is HT29. The test can be described thus: Cytotoxicity (MTT), HT29. The following applies: Homo sapiens, HT-29, 72 hours, 2500 cells/well. The test is classed as cell-based. How it is done:
as §2, §3

A further test addresses T2, αvβ5 (Homo sapiens, UniProt P06756+P18084).
T2 construct: Cells HT29, K562, or K562 transfected with αvβ3; endogenous in cells; host or cells: HT29
Briefly: Cell attachment assay, αvβ5. Format: cell-based. The following applies: 1 hour at 37° C. How it is done:
as §4

Another test concerns HMVEC. The test can be described thus: Cytotoxicity (MTT), HMVEC. Format: cell-based. The following applies: 72 hours, 5000 cells/well. As for the experimental part:
as §2, §3

For the next test, the target named is T3, α5β1 (Homo sapiens, UniProt P05556+P08648).
T3 construct: Cells HT29, K562, or K562 transfected with αvβ3; endogenous in cells; host or cells: K562
Briefly: Cell attachment assay, α5β1. The test is classed as cell-based. The following applies: 1 hour at 37° C. How it is done:
as §4

For the next test, the target named is T4, αIIbβ3 (Homo sapiens, UniProt P05106+P08514).
T4 construct: purchased Calbiochem
Briefly: Solid-phase assay: biotinylated-fibrinogen binding to immobilized αIIbβ3. The following applies: biotinylated-fibrinogen 10 nM, 2 hours at 37° C, 1 mM CaCl2, read-out: IC50 αIIbβ. How it is done: Assay 1. Fibrinogen Binding to Immobilized αIIbβ3 and αvβ3
as §1, with “The” for “Assay 1. Fibrinogen Binding to Immobilized αIIbβ3 and αvβ3 (Solid-Phase Assays) The”

T3 sequence (P08648 42-894 limits assumed): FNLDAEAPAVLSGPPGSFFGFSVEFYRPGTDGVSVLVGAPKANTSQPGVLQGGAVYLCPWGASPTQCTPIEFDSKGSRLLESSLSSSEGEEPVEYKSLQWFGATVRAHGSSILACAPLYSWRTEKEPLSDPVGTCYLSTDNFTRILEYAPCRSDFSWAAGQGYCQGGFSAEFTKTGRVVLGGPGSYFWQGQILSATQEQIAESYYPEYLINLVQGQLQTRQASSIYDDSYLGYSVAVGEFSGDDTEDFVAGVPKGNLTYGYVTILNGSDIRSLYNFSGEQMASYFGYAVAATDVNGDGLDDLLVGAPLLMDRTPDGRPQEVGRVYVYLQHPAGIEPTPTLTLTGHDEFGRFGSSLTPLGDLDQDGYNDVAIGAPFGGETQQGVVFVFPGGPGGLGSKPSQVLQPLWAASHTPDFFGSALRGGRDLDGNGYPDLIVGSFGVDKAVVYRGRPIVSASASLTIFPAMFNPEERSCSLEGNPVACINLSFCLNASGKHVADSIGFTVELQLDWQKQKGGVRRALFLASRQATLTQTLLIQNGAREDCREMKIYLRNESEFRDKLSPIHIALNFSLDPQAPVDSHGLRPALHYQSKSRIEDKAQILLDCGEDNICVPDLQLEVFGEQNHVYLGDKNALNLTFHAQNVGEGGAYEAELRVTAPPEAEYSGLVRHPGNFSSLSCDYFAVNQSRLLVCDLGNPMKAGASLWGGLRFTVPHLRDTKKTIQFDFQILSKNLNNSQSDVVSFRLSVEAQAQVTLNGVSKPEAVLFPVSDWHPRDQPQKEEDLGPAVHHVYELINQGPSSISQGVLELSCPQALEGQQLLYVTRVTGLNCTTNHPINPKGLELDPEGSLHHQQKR
T3 sequence (P08648 895-1049 limits assumed): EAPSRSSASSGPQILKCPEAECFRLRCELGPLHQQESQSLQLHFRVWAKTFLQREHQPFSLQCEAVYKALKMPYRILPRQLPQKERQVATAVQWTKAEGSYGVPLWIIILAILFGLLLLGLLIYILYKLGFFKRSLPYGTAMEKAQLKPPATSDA
T3 sequence (P05556 21-798): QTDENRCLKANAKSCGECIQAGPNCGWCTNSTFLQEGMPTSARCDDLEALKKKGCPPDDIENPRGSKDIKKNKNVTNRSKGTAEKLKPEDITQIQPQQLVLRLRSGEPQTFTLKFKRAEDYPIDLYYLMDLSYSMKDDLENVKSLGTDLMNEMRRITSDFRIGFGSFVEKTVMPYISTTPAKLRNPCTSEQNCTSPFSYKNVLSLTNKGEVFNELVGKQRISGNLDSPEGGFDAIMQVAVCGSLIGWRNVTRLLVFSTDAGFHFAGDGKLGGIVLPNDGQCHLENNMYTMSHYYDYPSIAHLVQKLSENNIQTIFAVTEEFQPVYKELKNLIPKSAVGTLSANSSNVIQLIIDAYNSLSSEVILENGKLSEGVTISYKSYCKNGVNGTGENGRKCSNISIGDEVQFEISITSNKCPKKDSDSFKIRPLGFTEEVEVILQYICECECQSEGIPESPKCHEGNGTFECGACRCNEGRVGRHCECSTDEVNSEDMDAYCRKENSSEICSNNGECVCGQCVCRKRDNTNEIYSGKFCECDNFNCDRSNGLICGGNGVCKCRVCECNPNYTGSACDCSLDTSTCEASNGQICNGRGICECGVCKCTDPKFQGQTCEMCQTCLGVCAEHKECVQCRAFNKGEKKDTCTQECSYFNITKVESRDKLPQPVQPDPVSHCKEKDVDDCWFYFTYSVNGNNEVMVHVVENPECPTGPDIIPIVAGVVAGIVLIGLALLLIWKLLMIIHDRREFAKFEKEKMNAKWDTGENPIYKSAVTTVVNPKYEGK
T1 sequence (P06756 31-889 limits assumed): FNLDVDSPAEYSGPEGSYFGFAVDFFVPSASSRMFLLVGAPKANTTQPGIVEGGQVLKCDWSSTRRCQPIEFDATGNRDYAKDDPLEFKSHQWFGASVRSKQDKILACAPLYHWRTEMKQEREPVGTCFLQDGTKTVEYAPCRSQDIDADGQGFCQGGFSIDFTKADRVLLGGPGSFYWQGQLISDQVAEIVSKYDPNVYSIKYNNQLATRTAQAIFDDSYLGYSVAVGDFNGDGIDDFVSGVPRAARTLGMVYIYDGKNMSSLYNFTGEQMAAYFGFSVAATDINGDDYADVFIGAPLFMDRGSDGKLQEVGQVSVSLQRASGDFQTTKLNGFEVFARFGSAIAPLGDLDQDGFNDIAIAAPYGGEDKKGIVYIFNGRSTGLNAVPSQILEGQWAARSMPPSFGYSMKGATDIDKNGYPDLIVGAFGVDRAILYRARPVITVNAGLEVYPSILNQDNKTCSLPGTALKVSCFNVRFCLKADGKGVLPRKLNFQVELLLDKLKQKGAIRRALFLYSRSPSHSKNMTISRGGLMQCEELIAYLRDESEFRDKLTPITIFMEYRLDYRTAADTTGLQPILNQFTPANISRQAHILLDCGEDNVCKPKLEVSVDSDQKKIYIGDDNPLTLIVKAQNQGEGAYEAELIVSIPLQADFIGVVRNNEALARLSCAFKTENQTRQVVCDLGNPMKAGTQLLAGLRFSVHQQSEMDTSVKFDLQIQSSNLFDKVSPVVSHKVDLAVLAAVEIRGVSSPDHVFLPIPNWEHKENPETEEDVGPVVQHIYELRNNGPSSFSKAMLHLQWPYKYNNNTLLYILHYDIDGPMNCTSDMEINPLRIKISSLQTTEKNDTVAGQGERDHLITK
T1 sequence (P06756 891-1048 limits assumed): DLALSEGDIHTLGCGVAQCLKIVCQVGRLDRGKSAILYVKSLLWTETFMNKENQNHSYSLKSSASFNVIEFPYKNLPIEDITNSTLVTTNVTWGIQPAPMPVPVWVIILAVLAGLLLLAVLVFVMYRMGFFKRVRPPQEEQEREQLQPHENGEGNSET
T1 sequence (P05106 27-788): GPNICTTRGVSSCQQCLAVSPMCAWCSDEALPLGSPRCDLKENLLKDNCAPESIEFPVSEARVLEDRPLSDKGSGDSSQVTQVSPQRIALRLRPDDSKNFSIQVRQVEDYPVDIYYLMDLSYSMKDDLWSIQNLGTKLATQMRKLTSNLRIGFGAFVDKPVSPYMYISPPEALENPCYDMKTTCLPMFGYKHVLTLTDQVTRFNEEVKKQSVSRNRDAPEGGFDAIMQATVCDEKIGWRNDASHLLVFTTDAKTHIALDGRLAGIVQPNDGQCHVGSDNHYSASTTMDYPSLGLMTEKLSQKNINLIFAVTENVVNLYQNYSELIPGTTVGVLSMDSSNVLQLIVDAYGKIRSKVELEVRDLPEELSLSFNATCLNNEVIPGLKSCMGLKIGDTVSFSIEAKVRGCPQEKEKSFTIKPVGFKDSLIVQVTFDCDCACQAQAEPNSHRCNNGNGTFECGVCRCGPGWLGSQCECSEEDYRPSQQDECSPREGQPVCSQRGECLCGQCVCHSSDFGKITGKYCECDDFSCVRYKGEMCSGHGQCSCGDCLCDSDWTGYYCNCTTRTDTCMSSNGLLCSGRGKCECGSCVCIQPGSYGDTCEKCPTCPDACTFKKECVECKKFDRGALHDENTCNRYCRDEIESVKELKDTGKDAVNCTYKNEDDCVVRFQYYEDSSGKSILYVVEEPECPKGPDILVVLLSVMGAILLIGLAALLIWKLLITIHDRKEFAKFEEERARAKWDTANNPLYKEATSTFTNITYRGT
T2 sequence (P06756 31-889 limits assumed): as the sequence (P06756 31-889 limits assumed) above
T2 sequence (P06756 891-1048 limits assumed): as the sequence (P06756 891-1048 limits assumed) above
T2 sequence (P18084 24-799): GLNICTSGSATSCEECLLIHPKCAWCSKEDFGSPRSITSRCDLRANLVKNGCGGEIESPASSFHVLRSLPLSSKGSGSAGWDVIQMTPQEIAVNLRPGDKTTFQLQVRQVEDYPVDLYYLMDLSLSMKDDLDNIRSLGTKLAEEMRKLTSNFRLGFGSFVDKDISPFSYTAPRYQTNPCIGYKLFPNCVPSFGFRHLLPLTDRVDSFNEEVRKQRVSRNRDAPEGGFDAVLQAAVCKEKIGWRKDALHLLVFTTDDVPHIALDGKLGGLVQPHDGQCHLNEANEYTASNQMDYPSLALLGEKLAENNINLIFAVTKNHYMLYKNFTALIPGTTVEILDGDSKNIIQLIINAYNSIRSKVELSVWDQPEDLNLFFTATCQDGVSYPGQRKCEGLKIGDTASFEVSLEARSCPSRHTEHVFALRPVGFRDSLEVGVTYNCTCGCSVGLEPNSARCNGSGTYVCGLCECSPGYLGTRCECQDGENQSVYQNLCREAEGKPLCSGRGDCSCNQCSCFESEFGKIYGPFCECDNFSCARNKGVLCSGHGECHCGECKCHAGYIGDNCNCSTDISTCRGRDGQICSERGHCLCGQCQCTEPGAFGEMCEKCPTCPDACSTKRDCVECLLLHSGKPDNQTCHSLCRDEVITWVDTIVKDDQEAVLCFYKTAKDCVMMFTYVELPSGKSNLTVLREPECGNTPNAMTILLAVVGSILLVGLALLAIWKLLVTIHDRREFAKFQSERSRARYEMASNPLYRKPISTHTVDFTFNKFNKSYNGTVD

The molecule `CCOC(=O)[C@H](CNC(=O)c1ccc(-c2cccc(NC(=N)N)c2)s1)NS(=O)(=O)c1c(C)cc(C)cc1C` [AB-2, 5-(3-Guanidino-phenyl)-thiophene-2-carboxylic acid [2-carbamoyl-2-(2,4,6-trimethyl-benzenesulfonylamino)-ethyl]-carboxylic acid ethyl ester] yielded an IC50 at αvβ3 [1] of 104 nM.

On αvβ3 [1], `Cc1cc(C)c(S(=O)(=O)NC(CNC(=O)c2ccc(-c3cccc(NC(=N)N)c3)s2)C(N)=O)c(C)c1` (stereo not shown) [AB-4, 5-(3-Guanidino-phenyl)-thiophene-2-carboxylic acid [2-carbamoyl-2-(2,4,6-trimethyl-benzenesulfonylamino)-ethyl]-amide hydrochloride salt] had an IC50 of 36.3 nM.

Molecule `Cc1cc(C)c(S(=O)(=O)NC(CNC(=O)c2ccc(-c3cccc(NC(=N)N)c3)s2)C(N)=O)c(C)c1` (stereo not shown) [AC-1, 5-(3-Guanidino-phenyl)-thiophene-2-carboxylic acid [2-carbamoyl-2-(2,4,6-trimethyl-benzenesulfonylamino)-ethyl]-amide hydrochloride salt] returned a half-maximal inhibitory concentration (IC50) at αvβ3 [1] of 290 nM.

Turning to `N=C(N)NCc1cccc(-c2ccc(C(=O)NC[C@H](NS(=O)(=O)c3ccccc3)C(=O)O)s2)c1` [Compound E-2, 2-Benzenesulfonylamino-3-{[5-(3-guanidinomethyl-phenyl)-thiophene-2-carbonyl]-amino}-propionic acid trifluoroacetic acid salt], the IC50 with B16F10 is 1300 nM; against αvβ3 [2], 0.18 nM; in the test on HT29, over 10000 nM; against αvβ5 it was 72 nM; in the test with HMVEC, 200 nM; at α5β1, 640 nM. Besides, the half-inhibitory concentration (IC50) at αvβ3 [1] was 2.7 nM; on αIIbβ3, 0.55 nM. On αvβ3 [1], this molecule had a Selectivity of 0.2.

As for `Cc1cc(C)c(S(=O)(=O)N[C@@H](CNC(=O)c2ccc(-c3cccc(CNC(=N)N)c3)s2)C(=O)O)c(C)c1` [Compound F-2, 3-{[5-(3-Guanidinomethyl-phenyl)-thiophene-2-carbonyl]-amino}-2-(2,4,6-trimethyl-benzenesulfonylamino)-propionic acid trifluoroacetic acid salt], the IC50 in the test on B16F10 is 190 nM; at αvβ3 [2], 2.9 nM; in the test on HT29, 4600 nM; against αvβ5, 11 nM; with HMVEC it was 31 nM; against α5β1, 71 nM. In addition, the figures for the 50% inhibitory concentration (IC50) at αvβ3 [1] and at αIIbβ3 were 8.2 nM and 0.25 nM, respectively. Moreover, the Selectivity on αvβ3 [1] stood at 0.03.

For the molecule `N=C(N)Nc1cccc(-c2ccc(C(=O)NC[C@H](NS(=O)(=O)c3ccccc3)C(=O)O)s2)c1` [Compound K-3, 2-Benzenesulfonylamino-3-{[5-(3-guanidino-phenyl)-thiophene-2-carbonyl]-amino}-propionic acid (trifluoroacetic acid salt)], the IC50 in the test with B16F10 was 320 nM; at αvβ3 [2], 2.8 nM; with HT29, 5100 nM; on αvβ5 it was 6.4 nM; in the test with HMVEC, 45 nM; at α5β1, 80 nM. For the same molecule, the IC50 at αvβ3 [1] turned out to be 1.5 nM; on αIIbβ3, 1.4 nM. The Selectivity on αvβ3 [1] is recorded as 1.

For `Cc1cc(C)c(S(=O)(=O)N[C@@H](CNC(=O)c2ccc(-c3cccc(NC(=N)N)c3)s2)C(=O)O)c(C)c1` [Compound M-3, 3-{[5-(3-Guanidino-phenyl)-thiophene-2-carbonyl]-amino}-2-(2,4,6-trimethyl-benzenesulfonylamino)-propionic acid (trifluoroacetic acid salt)], the 50% inhibitory concentration (IC50) turned out to be 260 nM in the test on B16F10; 0.018 nM against αvβ3 [2]; 6900 nM in the test on HT29; 1.6 nM against αvβ5; 140 nM in the test with HMVEC; 34 nM at α5β1. The 50% inhibitory concentration (IC50) is 1.9 nM on αvβ3 [1] and 1.1 nM at αIIbβ3. For the same molecule, on αvβ3 [1], the Selectivity came to 0.6.

On to `Cc1cc(C)c(S(=O)(=O)N[C@@H](CNC(=O)c2ccc(/C=C/CNC(=N)N)s2)C(=O)O)c(C)c1` [Compound U-2, (S)-3-{[5-(3-Guanidino-(E)-propenyl)-thiophene-2-carbonyl]-amino}-2-(2,4,6-trimethyl-benzenesulfonylamino)-propionic acid trifluoroacetic acid salts], for which the concentration for half-maximal inhibition (IC50) was found to be 180 nM in the test with B16F10; 1.5 nM on αvβ3 [2]; 4800 nM in the test with HT29; 6 nM at αvβ5; 26 nM in the test with HMVEC; 6.1 nM against α5β1. Also, the half-maximal inhibitory concentration (IC50) at αvβ3 [1] was 0.5 nM; at αIIbβ3 it was 0.54 nM. This molecule also came in with a Selectivity at αvβ3 [1] of 1.

On αvβ3 [1], `Cc1cc(C)c(S(=O)(=O)NC(CNC(=O)c2ccc(-c3cccc(NC(=N)N)c3)s2)C(=O)Nc2nccs2)c(C)c1` (stereo not shown) [Compound X-5, 5-(3-Guanidino-phenyl)-thiophene-2-carboxylic acid [2-(thiazol-2-ylcarbamoyl)-2-(2,4,6-trimethyl-benzenesulfonylamino)-ethyl]-amide hydrochloride salt] displayed an IC50 of 360 nM.

(Values after patent publication US6274620A, “Thiophene integrin inhibitors” (BioChem Pharma Inc., priority 2000, dated 2001).)
